Data: US9012455B2, “Pharmaceutical compositions containing an indoyl isoquinoline containing compound and uses thereof” (The Regents of the University of California, priority 2006, dated 2015)
“And” between values parts separate entries of the source, which are not always exact repeats. Identical values can stand only once. Like-named read-outs stand apart in the source and are kept apart here.

Columns and labels:
Ba/F3-T315I cells [1] = assay: Western blot of protein expression; type: cell-based, murine; conditions: 20 μM IBR2 alone, within 12-24 hours
Description: Direct targeting to Rad51 may provide a potential strategy to overcome this type of resistance. […] Next, the inventors examined the effects of IBR2 treatment on the protein expression levels in these cells by western blot.

Ba/F3-T315I cells [2] = assay: induction of cell death; type: cell-based, murine; conditions: 20 μM IBR2 alone
Ba/F3 parental cells [3] = assay: XTT growth inhibition; type: cell-based, murine; conditions: 48 hr
[4] = test system: Ba/F3 cells carrying BCR-ABL expression; assay: Western blot of BCR-ABL/Stat5/Rad51 pathway; type: cell-based, murine
Description: (§1) To examine the consequence of the BCR-ABL/Stat5/Rad51 regulatory pathway, the protein expression as well as their phosphorylation states in IBR2-treated cells were analyzed by Western blot. […] On the contrary, there was little effect on Ba/F3 parental cells. The decrease of Rad51 expression in IBR2-treated cells is consistent with the inventors′ earlier observation that IBR2 induces Rad51 degradation mediated by proteasome in breast cancer cells. Furthermore, the inventors performed the same set of experiments using compound B6, which has no inhibitory activity to Rad51 in vitro.

BRC repeat = assay: SPR compound pretreatment, immobilized BRC repeat; type: binding
Description: (§2) To determine whether it was Rad51 or BRC repeat that actually served as a direct target of these compounds, surface plasmon resonance (SPR) was employed to detect the inhibition of protein binding by compound pretreatment. In principle, one of the proteins was attached to the sensor chip, and IBR compounds were allowed to pass through the surface; then, the binding of the second protein was measured. If IBR compounds bind the immobilized protein, the binding of the second protein will be reduced; otherwise, the binding capacity of second protein will be mostly retained.

Ba/F3 parental cells [5] = assay: Western blot of protein expression; type: cell-based, murine; conditions: IBR2-treated
Description: To examine the consequence of the BCR-ABL/Stat5/Rad51 regulatory pathway, the protein expression as well as their phosphorylation states in IBR2-treated cells were analyzed by Western blot.

Ba/F3-p210 cells [6] = assay: median-effect and Combination Index analysis (Chou's method); type: cell-based, murine; conditions: Mus musculus, read-out: median-effect dose (Dm)
Rad51 [7] = molecular target: T1, Rad51 (Homo sapiens, UniProt Q06609); assay: gel filtration profile of Rad51 (multimerization); type: biochemical; conditions: data not shown
T1 sequence (Q06609 1-339): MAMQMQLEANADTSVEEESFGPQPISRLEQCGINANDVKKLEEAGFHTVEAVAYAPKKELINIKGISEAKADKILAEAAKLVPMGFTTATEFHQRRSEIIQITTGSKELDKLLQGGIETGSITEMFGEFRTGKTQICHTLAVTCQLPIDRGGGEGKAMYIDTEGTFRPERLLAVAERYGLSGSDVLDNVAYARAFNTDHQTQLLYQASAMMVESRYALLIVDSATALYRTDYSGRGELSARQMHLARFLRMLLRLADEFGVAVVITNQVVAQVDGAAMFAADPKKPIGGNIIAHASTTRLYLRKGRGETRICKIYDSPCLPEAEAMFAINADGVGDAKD
Description: To test this possibility, the inventors then compared the gel filtration profile of Rad51 incubated in the presence or absence of IBR2. […] The inventors then aligned the 3D structure of IBR2 with the BRC4 hairpin structure and the Rad51 oligomerization motif together. […] Therefore, one possibility of the action mechanism is that IBR compounds, by mimicking Phe1524 of BRCA2, may block the entrance of the hydrophobic binding pocket on Rad51 core domain, and inhibit BRCA2/Rad51 interaction as well as Rad51 multimerization.

[8] = test system: BCR-ABL-expressing Ba/F3 cells; assay: XTT growth inhibition; type: cell-based, murine; conditions: 48 hr
Description: (§3) In CML cells, the constitutively active BCR-ABL is responsible for maintaining high levels of Rad51 activity by direct activation through phosphorylation and transcriptional up-regulation mediated by STAT5. It is therefore contemplated that inhibition of Rad51 activity by IBR2 may have detrimental effects on CML. To test this possibility, murine hematopoietic Ba/F3 progenitor cells expressing different versions of BCR-ABL (e.g., wild-type, T315I, and E255K) mutants were treated with IBR2 at indicated concentrations for 48 hr, and growth inhibition was then determined by XTT (sodium 3′-[1-(phenylaminocarbonyl)-3,4-tetrazolium]-bis(4-methoxy-6-nitro) benzene sulfonate) assay. […] To further test whether the growth inhibition was resulted from cell death or cytostatic effect of IBR2 treatment, the inventors then determined the percentages of annexin V positive cells, which is indicative of cell death, after IBR2 treatment.
as §1, with “Furthermore, the inventors performed the same set of experiments using compound B6, which has no inhibitory activity to Rad51 in vitro.” left out

BRC-RAD51 interaction = molecular target: T2, BRC-RAD51 interaction (Homo sapiens, UniProt Q06609); assay: inducible reverse yeast two-hybrid screening; type: cell-based
T2 construct: expressed in transfected cells; host or cells: yeast strain harboring a TetOp-driven URA3 gene
T2 sequence (Q06609 1-339): T1 sequence (Q06609 1-339)
Description: Briefly, two fusion proteins, the TetR-BRC fusion protein (TetR/NCB, constitutively expressed) and the Rad51-activation domain fusion protein (AD/Rad51, expressed under the GAL1 promoter), worked together as a transcriptional activator in a yeast strain harboring a TetOp-driven URA3 gene. The interaction between these two fusion proteins induced the expression of URA3 gene, and the toxic metabolite from 5-FOA in the medium caused cell death. If the small molecules tested inhibited TetR/BRC/AD/Rad51 interaction, URA3 expression was abolished and cells are allowed to grow.
The reverse yeast two-hybrid system is used to perform the second round screening of the modified small compounds. TetR/NCB fission protein which contains BRC1-4 repeats (TetR/NCB) are expressed constitutively; the expression of a RAD51-GAL4 Activation Domain fusion protein (AD/RAD51) is rendered galactose-inducible under GAL1 promoter. Yeast is grown on a galactose medium containing 5-FOA. The assay is performed on 96-well plates. Small molecule compounds are added into the medium at the concentration of 10 mM in the total volume of 100 ml. The compounds that can disrupt the BRC-RAD51 interaction are identified by the viability of the yeast.

Rad51-BRC repeat binding = molecular target: T3, Rad51-BRC repeat binding (Homo sapiens, UniProt Q06609); assay: SPR (Biacore) competitive binding assay, solution competition format
T3 sequence (Q06609 1-339): T1 sequence (Q06609 1-339)
Description: Therefore, the 5-position of indole ring may provide a potential site for further modification. The inventors also noticed that there is a chiral center in the IBR compounds as marked by an asterisk in FIG. 1B. Initially, the inventors separated these two enantiomers by chiral HPLC (Regis Whelk-O1, Hexane:isopropanol=75:25) as shown in chromatogram of FIG. 1C and determined the absolute configuration by X-ray crystallography. […] Here, the inhibition of Rad51-BRC repeat binding was analyzed by SPR in a solution competition format.
Successful entities are then analyzed with Biacore's surface plasmon resonance (SPR) technique in a solution competition format to determine their median inhibitory concentration on Rad51. Briefly, the assays are performed on a Biacore 3000 (Biacore Inc.) using a Sensor chip NTA (Biacore Inc.) for capturing His-tagged Rad51 protein. The concentration of BRC protein is kept constant. Compounds are dissolved in DMSO at 20 mM and serially diluted in each BRC test sample. The assays are performed at 25° C. in running buffer (10 mM HEPES, 150 mM NaCl, 0.1% DMSO). Relative BRC-Rad51 binding percentage in the presence of inhibitors is calculated. The experiments are carried out in triplicate and averaged. The best-fit competitive binding curve is drawn and median inhibitory concentration of each candidate compound is obtained. The results of these assays are thought to help to establish a quantitative structure-activity relationship, which in turn guides further optimization of the positive hits.
To further determine the binding affinity of IBR2 to Rad51, the inventors then used a Biacore competitive binding assay.

[9] = test system: human blast crisis CML K562 cells; assay: percentage of apoptotic cells; type: cell-based
Rad51 [10] = molecular target: T1, Rad51; assay: SPR compound pretreatment, immobilized Rad51; type: binding
Description: as §2

Ba/F3-p210 cells [11] = assay: percentage of apoptotic cells; type: cell-based, murine; conditions: 48 hours
Description: Since Rad51 and BCR-ABL are in the same pathway essential for cell survival, it was contemplated that simultaneous treatment of Ba/F3-p210 cells with both inhibitors may synergistically enhance the cell death. […] Exemplary results are depicted in FIGS. 4A and 4B.

Ba/F3-P210 = assay: cell growth (viable cell count / XTT); type: cell-based; conditions: 0 to 20 μM, up to three days, dose-dependent
Description: (§4) The inventors also examined the effect of IBR2 on growth of Ba/F3 expressing wild type Bcr-Abl-P210 and Bcr-Abl mutant isoform T315I. […] FIG. 9 illustrates the effect of IBR2 on parental Ba/F3 cells and Ba/F3 cells expressing WT Bcr-Abl or Bcr-Abl mutant isoform T315I cells. […] After 72 hours of incubation, proliferation was measured by XTT-based method. Absorbance was measured at 490 nm in a microplate reader. Bars are SD, n=2.

Ba/F3-T315I = assay: cell growth (viable cell count / XTT); type: cell-based; conditions: 0 to 20 μM, up to three days, dose-dependent
Description: as §4

[12] = test system: Ba/F3 cells expressing T315I BCR-ABL; assay: XTT growth inhibition; type: cell-based, murine; conditions: Mus musculus, BaF3, 48 hr
Description: as §3

[13] = test system: Rad51 foci formation in MCF-7 breast cancer cells; assay: IR-induced Rad51 foci formation assay; type: cell-based
Description: These compounds were then tested for their effects on the IR-induced Rad51 foci formation in MCF-7 breast cancer cells. […] These compounds were then tested for their effects on the IR-induced Rad51 foci formation in MCF-7 breast cancer cells as also described in WO 2006/044933.

[14] = test system: Ba/F3 cells expressing WT, T315I or E255K BCR-ABL; assay: annexin V positive cells (apoptosis); type: cell-based, murine; conditions: dose dependent
Description: as §3

Ba/F3-T315I cells [15] = assay: survival of NOD/SCID mice injected with Ba/F3-T315I cells; type: in vivo; conditions: 100 mg/kg, 30 days, vs vehicle, p<0.01
Ba/F3-p210 cells [16] = assay: Western blot of protein expression; type: cell-based, murine; conditions: 0.1-0.6 μM imatinib, absence of IBR2
Description: The inventors then examined the effects of co-treatment on Rad51, BCR-ABL, and Stat5 protein expression levels as described above.

K562 cells = assay: Western blot of protein expression; type: cell-based, human; conditions: imatinib, absence of IBR2
Description: The inventors then examined the protein expression levels of Rad51, BCR-ABL and Stat5 by western blot analysis.

[17] = SPR, solution competition format, read-out: median inhibition concentration

O=S(=O)(Cc1ccccc1)N1C=Cc2ccccc2C1c1c[nH]c2ccccc12 (centres unmarked) [IBR2]
protein expression levels of Rad51, BCR-ABL, p-BCR-ABL and p-Stat5 (Ba/F3-T315I cells [1]): dramatically reduced
cell death (Ba/F3-T315I cells [2]): over 80%
proliferation (Ba/F3 parental cells [3]): much less
Rad51, BCR-ABL and phosphorylated Stat5 (p-Stat5) levels [4]: dose-dependent decreases
c-Abl, p-c-Abl and total Stat5 protein [4]: unchanged
binding of immobilized BRC repeat to Rad51 after compound pretreatment (BRC repeat): did not affect
protein expression and phosphorylation (Ba/F3 parental cells [5]): little effect
EC50 (Ba/F3-p210 cells [6]): 13900 nM
Rad51 elution profile (multimerization) (Rad51 [7]): major peak consistent with the molecular weight of a monomer
proliferation [8]: inhibited the proliferation
yeast two-hybrid screening (BRC-RAD51 interaction): positive
IC50 (Rad51-BRC repeat binding; Biacore competitive binding assay, read-out: IC50): 110 nM
apoptotic percentage ([9]; IBR2 15 μM alone): ~10%
binding of BRC repeat to immobilized Rad51 after compound pretreatment (Rad51 [10]): lost the ability to bind BRC repeat
apoptotic cells (Ba/F3-p210 cells [11]; IBR2 5 μM): about 1.7%
apoptotic cells (Ba/F3-p210 cells [11]; IBR2 10 μM): ~4.1%
apoptotic cells (Ba/F3-p210 cells [11]; IBR2 15 μM alone): < 10% and ~12.6%
apoptotic cells (Ba/F3-p210 cells [11]; IBR2 20 μM): ~57.1%
cell growth (Ba/F3-P210): significantly inhibited the growth
cell growth (Ba/F3-T315I): significantly inhibited the growth
IC50 [12]: 12000 nM
IR-induced Rad51 foci formation [13]: dramatically reduced Rad51 foci formation
IR-induced Rad51 foci formation ([13]; listed as NS7798): positive
apoptosis (annexin V positive cells) [14]: induced apoptosis
survival of mice (Ba/F3-T315I cells [15]): significantly prolonged survivals

O=S(=O)(Cc1ccccc1)N1C=Cc2ccccc2[C@@H]1c1c[nH]c2ccccc12 [R-IBR2]
IC50 (Rad51-BRC repeat binding; [17]): ~1 nM

O=S(=O)(Cc1ccccc1)N1C=Cc2ccccc2C1c1c[nH]c2ccccc12 (racemic) [IBR2]
IC50 (Rad51-BRC repeat binding; [17]): ~115 nM

Cc1ccc(NC(=O)c2ccc(CN3CCN(C)CC3)cc2)cc1Nc1nccc(-c2cccnc2)n1 [imatinib]
Rad51, BCR-ABL, p-BCR-ABL and p-Stat5 levels (Ba/F3-p210 cells [16]): modestly decreased
Stat5 protein level (Ba/F3-p210 cells [16]): did not influence
apoptotic percentage ([9]; imatinib 0.1 μM): about 9.7%
apoptotic percentage ([9]; imatinib 0.2 μM): ~11.8%
apoptotic percentage ([9]; imatinib 0.6 μM): ~28.1%
Rad51, BCR-ABL, p-BCR-ABL, p-Stat5 levels (K562 cells): decreased in a dose dependent manner
Stat5 protein level (K562 cells): did not affect
apoptotic cells (Ba/F3-p210 cells [11]; imatinib 0.1 μM): about 6.8%
apoptotic cells (Ba/F3-p210 cells [11]; imatinib 0.2 μM): ~7.6% and ~10%
apoptotic cells (Ba/F3-p210 cells [11]; imatinib 0.4 μM): ~23.1%
apoptotic cells (Ba/F3-p210 cells [11]; imatinib 0.6 μM): ~39.3%
